# Experimental data from US20260132127A1, “NOVEL SPIRO COMPOUND” (MITSUBISHI TANABE PHARMA CORPORATION, priority 2021, published 2026).
# Molecular target: T1, human TRH-DE (Homo sapiens, UniProt Q9UKU6)
# T1 construct: expressed in transfected cells; host or cells: Expi 293 cells (transient expression), membrane fraction
# T1 sequence (Q9UKU6 1-1069): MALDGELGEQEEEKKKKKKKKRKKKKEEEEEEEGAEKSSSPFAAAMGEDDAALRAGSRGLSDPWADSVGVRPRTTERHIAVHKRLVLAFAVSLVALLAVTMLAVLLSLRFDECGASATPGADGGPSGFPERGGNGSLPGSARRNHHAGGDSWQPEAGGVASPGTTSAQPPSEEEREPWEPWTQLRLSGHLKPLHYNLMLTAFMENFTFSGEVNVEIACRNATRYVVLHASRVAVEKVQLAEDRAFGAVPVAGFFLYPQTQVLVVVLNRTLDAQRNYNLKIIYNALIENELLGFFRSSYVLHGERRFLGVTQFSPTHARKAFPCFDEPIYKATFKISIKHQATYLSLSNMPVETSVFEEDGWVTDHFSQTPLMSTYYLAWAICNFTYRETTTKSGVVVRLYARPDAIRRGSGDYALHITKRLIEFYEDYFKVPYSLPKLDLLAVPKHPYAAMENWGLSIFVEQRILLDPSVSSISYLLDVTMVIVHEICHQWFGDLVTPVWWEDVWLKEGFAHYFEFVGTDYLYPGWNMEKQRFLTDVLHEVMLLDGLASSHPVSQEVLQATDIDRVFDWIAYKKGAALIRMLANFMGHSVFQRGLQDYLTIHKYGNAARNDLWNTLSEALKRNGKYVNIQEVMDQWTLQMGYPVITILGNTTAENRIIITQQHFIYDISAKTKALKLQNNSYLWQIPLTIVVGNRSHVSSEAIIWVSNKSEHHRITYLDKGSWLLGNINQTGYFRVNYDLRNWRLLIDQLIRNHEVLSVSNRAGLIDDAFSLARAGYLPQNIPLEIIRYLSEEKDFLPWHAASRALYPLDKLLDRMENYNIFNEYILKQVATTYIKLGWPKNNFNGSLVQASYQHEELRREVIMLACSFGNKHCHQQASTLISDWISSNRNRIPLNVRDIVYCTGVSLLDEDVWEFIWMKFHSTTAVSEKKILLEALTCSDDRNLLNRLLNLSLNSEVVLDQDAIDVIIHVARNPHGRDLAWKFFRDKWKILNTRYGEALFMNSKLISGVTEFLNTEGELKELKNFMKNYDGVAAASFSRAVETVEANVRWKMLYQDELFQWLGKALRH
# Test: TRH-DE inhibition test (RapidFire MS measurement of product Cyclo (His-Pro))
# Format: biochemical
# Details: membrane fraction of Expi 293 cells expressing human TRH-DE; 10 μM TRH substrate; room temperature, 2 hours; 16-point concentration test
# How it was run: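 Membrane fraction from Expi 293 cells transiently expressing human TRH-DE, at 4 μg/ml in phosphate buffer pH 7.4 with 200 μM bacitracin, reacted with compound and 10 μM substrate for 2 h at room temperature. Cyclo(His-Pro) measured by RapidFire MS against an isotope internal standard. IC50 from 16-point curves.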
row,SMILES,IC50
1,C[C@H]1CCn2nc(C3(F)CC3)cc2C(=O)N1C1CC2(C1)CN(S(=O)(=O)c1ccccc1F)C2 [Example 191],86 nM
2,C[C@@H]1CCn2nc(C(F)(F)F)cc2C(=O)N1C1CC2(C1)CN(S(=O)(=O)c1ccccc1F)C2 [Example 193],25 nM
3,C[C@@H]1CCn2ncc(Cl)c2C(=O)N1C1CC2(C1)CN(S(=O)(=O)c1ccccc1F)C2 [Example 194],36 nM
4,C[C@@H]1CCn2ncc(Br)c2C(=O)N1C1CC2(C1)CN(S(=O)(=O)c1ccccc1F)C2 [Example 195],35 nM
5,CCn1ncc2c1OC[C@@H](C)N(C1CC3(C1)CN(S(=O)(=O)c1ccccc1F)C3)C2=O [Example 199],21 nM
6,C[C@@H]1COc2c(cnn2CC(F)F)C(=O)N1C1CC2(C1)CN(S(=O)(=O)c1ccccc1F)C2 [Example 200],19 nM
7,C[C@@H]1COc2c(cnn2CC(F)(F)F)C(=O)N1C1CC2(C1)CN(S(=O)(=O)c1ccccc1F)C2 [Example 201],20 nM
8,C[C@@H]1COc2c(cnn2C2CC2)C(=O)N1C1CC2(C1)CN(S(=O)(=O)c1ccccc1F)C2 [Example 202],19 nM
9,C[C@@H]1COc2c(cnn2C(C)(C)C)C(=O)N1C1CC2(C1)CN(S(=O)(=O)c1ccccc1F)C2 [Example 203],34 nM
10,C[C@@H]1COc2c(cnn2-c2ccccc2)C(=O)N1C1CC2(C1)CN(S(=O)(=O)c1ccccc1F)C2 [Example 204],34 nM
11,C[C@@H]1COc2nn(C)cc2C(=O)N1C1CC2(C1)CN(S(=O)(=O)c1ccccc1F)C2 [Example 209],22 nM
12,C[C@@H]1COc2nn(C3CC3)cc2C(=O)N1C1CC2(C1)CN(S(=O)(=O)c1ccccc1F)C2 [Example 210],21 nM
13,C[C@@H]1COc2nn(C)c(Br)c2C(=O)N1C1CC2(C1)CN(S(=O)(=O)c1ccccc1F)C2 [Example 212],23 nM
14,C[C@@H]1CCn2cnc(Br)c2C(=O)N1C1CC2(C1)CN(S(=O)(=O)c1ccccc1F)C2 [Example 215],26 nM
15,Cc1nc(Br)n2c1C(=O)N(C1CC3(C1)CN(S(=O)(=O)c1ccccc1F)C3)[C@H](C)CC2 [Example 216],46 nM
16,C[C@@H]1COc2conc2C(=O)N1C1CC2(C1)CN(S(=O)(=O)c1ccccc1F)C2 [Example 217],35 nM
17,Cc1onc2c1C(=O)N(C1CC3(C1)CN(S(=O)(=O)c1ccccc1F)C3)[C@H](C)CO2 [Example 218],37 nM
18,C[C@@H]1COc2noc(C(C)(C)C)c2C(=O)N1C1CC2(C1)CN(S(=O)(=O)c1ccccc1F)C2 [Example 219],38 nM

# The next molecules have a lower IC50 than those just listed; values first:
row,IC50,SMILES
1,15 nM,C[C@@H]1CCn2nc(F)c(Br)c2C(=O)N1C1CC2(C1)CN(S(=O)(=O)c1ccccc1F)C2 [Example 196]
2,14 nM,C[C@@H]1CCn2nc3c(c2C(=O)N1C1CC2(C1)CN(S(=O)(=O)c1ccccc1F)C2)CCC3 [Example 198]
3,14 nM,Cc1nn(C)c2c1C(=O)N(C1CC3(C1)CN(S(=O)(=O)c1ccccc1F)C3)[C@H](C)CO2 [Example 205]
4,14 nM,C[C@@H]1COc2c(c(C3CC3)nn2C2CC2)C(=O)N1C1CC2(C1)CN(S(=O)(=O)c1ccccc1F)C2 [Example 208]
5,13 nM,C[C@@H]1CCn2nc(C3CC3)c(F)c2C(=O)N1C1CC2(C1)CN(S(=O)(=O)c1ccccc1F)C2 [Example 197]
6,13 nM,Cc1c2c(nn1C)OC[C@@H](C)N(C1CC3(C1)CN(S(=O)(=O)c1ccccc1F)C3)C2=O [Example 211]
7,11 nM,Cc1nn(C2CC2)c2c1C(=O)N(C1CC3(C1)CN(S(=O)(=O)c1ccccc1F)C3)[C@H](C)CO2 [Example 207]
8,11 nM,C[C@@H]1CCn2c(cnc2Br)C(=O)N1C1CC2(C1)CN(S(=O)(=O)c1ccccc1F)C2 [Example 214]
9,9 nM,C[C@@H]1CCn2nc(C3(C(F)(F)F)CC3)cc2C(=O)N1C1CC2(C1)CN(S(=O)(=O)c1ccccc1F)C2 [Example 192]
10,5 nM,C[C@@H]1COc2c(c(C3CC3)nn2C)C(=O)N1C1CC2(C1)CN(S(=O)(=O)c1ccccc1F)C2 [Example 206]
